Experimental data reported in patent EP2711366A1, “Cationic triphenylamine derivatives activable by visible and Infra Red light for inducing and imaging apoptosis in cancer cells” (Institut Curie, priority 2012, dated 2014).

What was measured:
HeLa cells [1] = tested on: HeLa cells
Procedure: (§1) Different experiments were conducted and described below: • MCF7 cells were treated with 2µM of TP2Py or TP3Bzim and exposed to illumination (Fig.9A); • HeLa cells were treated with 2µM of TP2Py or TP3Bzim and exposed to illumination (Fig.9B); • MCF7 cells were treated with TP2Py, 40 min illumination (black circles) or without illumination (white circles) (Fig.9C) • HeLa cells were treated with TP2Py [30 min illumination (black circles) or without illumination (white circles)] or TP3Bzim [15 min illumination (black triangles) or without illumination (white triangles)]
(§2) For each experiment, the source of excitation was a Mercury lamp (130W; 380-600nm) with an excitation filter centered at 452nm (± 45 nm), irradiance, 60mW/cm^2.
(§3) First, the experiment was calibrated by determining the time of illumination exposure which leads to the toxicity 50%, for a given concentration of TPA (2 µM) and for an irradiance of 60mW/cm^2. […] This characteristic time was then used for the plots shown in Fig. 9C and 9D which represent the cell viability as a function of TPA concentration (in HeLa and MCF-7 cells, respectively).

[2] = tested on: ROS (reactive oxygen species) in MCF7 cells; assay: Fluorescence detection of ROS generation with H2DCF-DA probe, flow cytometry; type: cell-based; settings: 2µM, 2 hours
Procedure: CF-7 cells were plated in 12-well plates (2.10^5 cells/well) and incubated with 2µM of TP2Py for 2h at 37°C. After a time illumination of 30 min [Irradiance, 40mW/cm^2. The source of excitation was a Mercury lamp (130 W; 380-600 nm) with an excitation filter centered at 452 nm (± 45 nm)], cells were gently scraped, individualized in PBS-EDTA (10 mM) and stained with 10µM of […] (H2DCF-DA) (Molecular Probe, USA) for 45 min. Cells were then washed in ice-cold HEPES buffer before analysis. Fluorescence signals of H2DCF-DA and TP2Py were measured by FACSCalibur flow cytometer using FL1 and FL2 detectors, respectively.
Different experiments are summarized below: • Control MCF7 cells were treated with DMSO (1%) (Fig.13A) without light exposure; • MCF7 cells were plated and treated with H2DCF-DA and 2µM TP2Py for 2 hours without light exposure (Fig.13B); • MCF7 cells were plated and treated with H2DCF-DA and 2µM TP2Py for 2 hours after a time illumination of 30 min (Fig.13C)
The horizontal (FL1-H) and vertical (FL2-H) axes correspond to fluorescence signals of H2DCF-DA and TP2Py, respectively.

DNA = settings: cited from earlier work
[3] = Dark toxicity (MTT assay, without illumination); type: cell-based; settings: human; MCF-7 cells, tested in dark; read-out: TC50 (toxicity concentration 50%), dark toxicity
Procedure: as §1, §2, §3

HeLa cells [4] = assay: Cytophototoxicity by MTT assay under illumination; type: cell-based; settings: irradiance 60mW/cm^2
Procedure: as §1, §2, §3

living MCF-7 cells [5] = assay: Cell death induced by two-photon excitation (multiphoton microscopy); type: cell-based; settings: two-photon λex 860nm, irradiance 1.25W/cm^2
Procedure: A similar set up was used for two-photon images except that the excitation source was a 80-MHz mode-locked Mai Tai® Ti:Sapphire tunable laser (720-920 nm, 100 fs laser pulse; Spectra Physics, Mountain View, California) tuned to 860 nm.
Living MCF-7 cells were treated with 2 µM of TP2Py for 2 hours, exposed to two-photon excitation and simultaneously observed by multiphoton microscopy [using- a pulsed IR laser source for excitation Mai Tai, Spectra Physics, λex = 860nm; irradiance, 1.25W/cm^2, emission slit setting: 560-720nm].

living MCF-7 cells [6] = assay: One-photon confocal fluorescence microscopy, photo-induced nuclear translocation and membrane blebbing; type: cell-based
Procedure: One-photon epifluorescence and confocal images were obtained using a SP2 confocal microscope (Leica MicroSystem) equipped with an incubation chamber (37°C, CO2 5%). Excitation and emission filters for epifluorescence were 450-490 nm and 515-700 nm, respectively. A continuous laser line (458 nm) was used for excitation in the confocal mode.
The photo-induced nuclear translocation and membrane blebbing were next assessed using confocal fluorescence microscopy [λexc = 458 nm; emission slit settings: 560-720nm and 530-690nm for TP2Py and TP3Bzim, respectively] under experimental conditions similar to those described in experiment 1 for epifluorescence experiments. The corresponding transmission images illustrating the concomitant membrane blebbing are shown below the confocal fluorescence images. Living MCF7 cells were incubated with 2µM TP3Bzim or TP2Py for 2 hours before observation. As shown in Fig. 5A (TP2Py) and in Fig. 5B (TP3BZim), the results obtained with confocal imaging were similar to those obtained with epifluorescence imaging (experiment 1), with however, some discrepancies in the time courses of event appearance, most likely due to the power of the excitation source which is different between epifluorescence and confocal experiments (see below). […] Based on both criteria (re-localization of the fluorescence signal and the formation of blebs), the deduced fluences were 22 and 40 J/cm^2 for TP2Py and TP3Bzim, respectively. […]
The TP2Py compound at a concentration of 2 µM was first incubated with living MCF-7 cells for 2 hours and then observed with confocal microscope with varying illumination power of the laser source [λ=458 nm; emission slit setting: 560-720 nm]. […] For each condition, the fluorescence intensity in ROIs corresponding to the nucleus was plotted as a function of time (the initial time value, t = 0, represents the first observation) (FIG.7C). Using integration time based on tmax values, light dose values, determined from experiments performed at irradiance of 5.6 or 30 mW/cm^2, were consistent (27.6 and 27 J/cm^2 respectively). These values are in accordance with the above-mentioned value for TP2Py (fluence, 22 J/cm^2 in Fig. 5).
Living MCF-7 cells were treated with varying concentrations of TP2Py for two hours (2µM; 0.2µM and 0.02µM) and observed with a confocal microscope [λexc = 458nm; irradiance 30mW/cm^2, emission slit setting: 560-720nm.] (FIG 8A: 2µM; FIG 8B: 0.2µM; FIGBC: 0.02µM).

[7] = 2µM, 2 hours, λexc 458 nm, irradiance 30 mW/cm^2

C[n+]1ccc(/C=C/c2ccc(N(c3ccccc3)c3ccc(/C=C/c4cc[n+](C)cc4)cc3)cc2)cc1 [TP2Py]
dark toxicity (concentration below which negligible) (HeLa cells [1]): ≥ 50 µM | HMFI population (H2DCF-DA positive, TP2Py positive) ([2]; 30 min illumination, 40mW/cm^2): 15.4% | HMFI population (H2DCF-DA positive, TP2Py positive) ([2]; without light exposure): 4.9% | maximum of emission in vitro, DNA-bound (DNA; Allains et al. 2007): 634 nm | λmax,emission (DNA; b156 attributes 634 nm to DNA-bound TP2Py in vitro (Allains et al. 2007)): 634 nm | CC50 [3]: > 30 µM | illumination time required for the same TC50 under illumination (HeLa cells [4]; Mercury lamp, filter 452nm): 30 min | corresponding light dose (HeLa cells [4]): 108 J/cm^2 | start of re-localization into the nucleus after the first excitation (living MCF-7 cells [5]; 2 µM, 2 hours): 5 to 15 min | light dose (living MCF-7 cells [5]): ≈ 300 J/cm^2 | time at which the first blebs appeared (living MCF-7 cells [6]; 20nM, constant light excitation, transmission mode): 75 min | light dose (living MCF-7 cells [6]; 0.2µM, irradiance 30 mW/cm^2): 306 J/cm^2 | tmax of nuclear re-localization (living MCF-7 cells [6]; 0.2µM, irradiance 30 mW/cm^2): > 2 h | deduced fluence (re-localization of the fluorescence signal and formation of blebs) (living MCF-7 cells [6]; 2µM, 2 hours, confocal, λexc 458 nm (Fig. 5)): 22 J/cm^2 | lag period before increase of fluorescence emission intensity in the nucleus (living MCF-7 cells [6]; [7]): 2 to 4 min | time of maximum fluorescence emission intensity in the nucleus (living MCF-7 cells [6]; [7]): 8 to 10 min | light dose (integration time based on tmax) (living MCF-7 cells [6]; 2 µM, irradiance 5.6 mW/cm^2): 27.6 J/cm^2 | tstart of nuclear re-localization (living MCF-7 cells [6]; 2 µM, irradiance 5.6 mW/cm^2): 50 min | light dose (integration time based on tmax) (living MCF-7 cells [6]; 2 µM, irradiance 30 mW/cm^2): 27 J/cm^2 | tmax of nuclear re-localization (living MCF-7 cells [6]; 2 µM, irradiance 30 mW/cm^2): 0.25 h | tstart of nuclear re-localization (living MCF-7 cells [6]; 2 µM, irradiance 30 mW/cm^2): 4 min
